These results are taken from patent US12467927B2, “Fluorescence resonance energy transfer (FRET) nanoprobe and preparation method and use thereof” (QILU UNIVERSITY OF TECHNOLOGY, priority 2022, dated 2025).

The data set is described as follows: Zeta potential determination. The data set is classed as physicochemical. As to the method:
Size and Zeta potential determinations were conducted on a Zetasizer Nano ZS (ZEN 3600, Malvern Instruments Ltd.). Transmission electron microscopy (TEM) images were determined by a transmission electron microscope (JEM-2100, JEOL). The fluorescence was measured by an F-4600 Fluorescence Spectrophotometer (Japan); the confocal fluorescence images of cells were obtained by a Nikon laser confocal microscope (Nikon, Japan).
The synthesized HMSN were characterized by TEM and dynamic light scattering (DLS). […] Meanwhile, the particle size distribution measured by DLS was mainly around 140 nm (FIG. 2). The experimental data was matched up with each other. […] The particle size of PAMAM (G=1.5) dendrimer was characterized by TEM. […] The particle size distribution measured by DLS was around 8 nm (FIG. 5). […] Meanwhile, to prevent the early leakage of DOX, the DOX was encapsulated by the RVRR peptide and PAMAM/TPE. To verify the successful encapsulation of HMSN/DOX, TEM characterization was conducted. […] Characterized by DLS and Zeta potential, the particle size distribution of the transparent thin layer structure was around 160 nm (FIG. 7), and a Zeta potential was 3.25 mV (FIG. 8).

Each structure is given as a SMILES string.

On to `COc1cccc2c1C(=O)c1c(O)c3c(c(O)c1C2=O)C[C@@](O)(C(=O)CO)C[C@@H]3O[C@H]1C[C@H](N)[C@H](O)[C@H](C)O1` [DOX, doxorubicin], for which the zeta potential is given as 24.3 mV.

In turn, `O=C(O)c1ccc(C(=C(c2ccccc2)c2ccccc2)c2ccccc2)cc1` [TPE-COOH, 1-(4-carboxyphenyl)-1,2,2-triphenylethylene] yielded a zeta potential of −8.6 mV.
